Activity calls are given as the source filed them. No cut-off for these calls is given here.
Assays:
[1] = tested on: K562; assay: Reversal of ABCB1 mediated adriamycin resistance in human K562 cells assessed as reduction in survival rate at 1 uM preincubated for 1 hrs followed by adriamycin addition and measured after 72 hrs by MTS assay; assay type: functional, cell-based; settings: time 73.0 hrs
[2] = tested on: K562; assay: Reversal of ABCB1 mediated adriamycin resistance in human K562 cells assessed as reduction in survival rate at 5 uM preincubated for 1 hrs followed by adriamycin addition and measured after 72 hrs by MTS assay; assay type: functional, cell-based; settings: time 73.0 hrs
[3] = tested on: K562/A02; assay: Reversal of ABCB1 mediated adriamycin resistance in human K562/A02 cells overexpressing ABCB1 assessed as reduction in survival rate at 1 uM preincubated for 1 hrs followed by adriamycin addition and measured after 72 hrs by MTS assay; assay type: functional
[4] = tested on: K562/A02; assay: Reversal of ABCB1 mediated adriamycin resistance in human K562/A02 cells overexpressing ABCB1 assessed as reduction in survival rate at 5 uM preincubated for 1 hrs followed by adriamycin addition and measured after 72 hrs by MTS assay; assay type: functional
[5] = tested on: K562/A02; assay: Reversal of ABCB1 mediated multidrug resistance in human K562/A02 cells overexpressing ABCB1 assessed as decrease in survival rate at 5 uM preincubated for 1 hrs followed by vincristine addition and measured after 72 hrs by MTS assay; assay type: functional; settings: time 73 hrs
[6] = molecular target: ATP-dependent translocase ABCB1 (Homo sapiens, UniProt P08183); assay: Inhibition of ABCB1 (unknown origin) ATPase activity assessed as decrease in luminescence by firefly luciferase reporter assay
[7] = tested on: K562; assay: Antitumor activity against human K562 cells xenografted in BALB/c mouse assessed as tumor growth inhibition at 20 mg/kg, ip QD for 14 days in presence of adriamycin; assay type: functional, organism-based; settings: time 14.0 day
[8] = tested on: K562; assay: Cytotoxicity against human K562 cells assessed as decrease in cell survival rate at 5 uM incubated for 72 hrs by MTS assay; assay type: toxicity, cell-based; settings: k562, 72 h
[9] = tested on: K562/A02; assay: Cytotoxicity against human K562/A02 cells overexpressing ABCB1 assessed as decrease in cell survival rate at 5 uM incubated for 72 hrs by MTS assay; assay type: toxicity, cell-based; settings: k562/a02, 72 h
[10] = Cytotoxicity against human K562 cells assessed as decrease in cell survival rate incubated for 72 hrs by MTS assay; assay type: toxicity, cell-based
[11] = Cytotoxicity against human K562/A02 cells overexpressing ABCB1 assessed as decrease in cell survival rate incubated for 72 hrs by MTS assay; assay type: toxicity, cell-based
[12] = tested on: K562; assay: Reversal of ABCB1 mediated adriamycin resistance in human K562 assessed as decrease in survival rate at 1.25 to 5 uM preincubated for 1 hrs followed by adriamycin addition and measured after 72 hrs by MTS assay; assay type: functional, cell-based; settings: dose 1.25-5 µM, time 73.0 hrs
[13] = tested on: K562/A02; assay: Reversal of ABCB1 mediated adriamycin resistance in human K562/A02 overexpressing ABCB1 assessed as decrease in survival rate at 1.25 to 5 uM preincubated for 1 hrs followed by adriamycin addition and measured after 72 hrs by MTS assay; assay type: functional, cell-based; settings: dose 1.25-5 µM, time 73.0 hrs
[14] = tested on: K562/A02; assay: Reversal of ABCB1 mediated adriamycin resistance in human K562/A02 overexpressing ABCB1 assessed as decrease in survival rate at 5 uM preincubated for 1 hrs followed by adriamycin addition and measured after 72 hrs by MTS assay; assay type: functional
[15] = Cytotoxicity against human HEK293 cells assessed as reduction in cell viability incubated for 72 hrs by SRB assay; assay type: toxicity, cell-based
[16] = Cytotoxicity against human HEK293 cells expressing ABCG2 assessed as reduction in cell viability incubated for 72 hrs by SRB assay; assay type: toxicity, cell-based
[17] = tested on: HEK293; assay: Reversal of ABCG2 mediated mitoxantrone resistance in human HEK293 assessed as decrease in survival rate at 1.25 to 5 uM preincubated for 1 hrs followed by mitoxantrone addition and measured after 72 hrs by SRB assay; assay type: functional, cell-based; settings: dose 1.25-5 µM, time 73.0 hrs
[18] = tested on: HEK293; assay: Reversal of ABCG2 mediated mitoxantrone resistance in human HEK293 overexpressing ABCG2 assessed as decrease in survival rate at 1.25 to 5 uM preincubated for 1 hrs followed by mitoxantrone addition and measured after 72 hrs by SRB assay; assay type: functional, cell-based; settings: dose 1.25-5 µM, time 73.0 hrs
[19] = molecular target: T1, Broad substrate specificity ATP-binding cassette transporter ABCG2 (Homo sapiens, UniProt Q9UNQ0); assay: Inhibition of ABCG2 (unknown origin) ATPase activity assessed as decrease in luminescence by firefly luciferase reporter assay
T1 sequence (Q9UNQ0 whole entry): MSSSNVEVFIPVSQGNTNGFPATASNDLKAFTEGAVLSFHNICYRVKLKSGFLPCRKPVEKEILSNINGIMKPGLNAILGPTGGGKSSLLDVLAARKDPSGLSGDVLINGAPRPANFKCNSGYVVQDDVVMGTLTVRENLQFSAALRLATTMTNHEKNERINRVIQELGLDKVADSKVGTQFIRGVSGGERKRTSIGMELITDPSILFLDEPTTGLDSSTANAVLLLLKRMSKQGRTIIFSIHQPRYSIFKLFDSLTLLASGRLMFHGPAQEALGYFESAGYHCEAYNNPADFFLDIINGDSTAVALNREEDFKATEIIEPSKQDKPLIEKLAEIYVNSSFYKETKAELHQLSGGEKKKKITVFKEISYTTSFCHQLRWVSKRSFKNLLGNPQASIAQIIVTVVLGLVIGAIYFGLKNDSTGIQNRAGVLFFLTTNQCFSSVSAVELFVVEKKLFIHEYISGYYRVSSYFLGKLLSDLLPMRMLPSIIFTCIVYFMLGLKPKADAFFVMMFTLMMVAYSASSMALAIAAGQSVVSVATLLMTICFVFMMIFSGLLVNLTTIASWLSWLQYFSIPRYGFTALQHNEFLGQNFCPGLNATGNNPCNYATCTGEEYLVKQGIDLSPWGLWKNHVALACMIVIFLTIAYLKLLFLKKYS

ATP-dependent translocase ABCB1, sequence (P08183 whole entry): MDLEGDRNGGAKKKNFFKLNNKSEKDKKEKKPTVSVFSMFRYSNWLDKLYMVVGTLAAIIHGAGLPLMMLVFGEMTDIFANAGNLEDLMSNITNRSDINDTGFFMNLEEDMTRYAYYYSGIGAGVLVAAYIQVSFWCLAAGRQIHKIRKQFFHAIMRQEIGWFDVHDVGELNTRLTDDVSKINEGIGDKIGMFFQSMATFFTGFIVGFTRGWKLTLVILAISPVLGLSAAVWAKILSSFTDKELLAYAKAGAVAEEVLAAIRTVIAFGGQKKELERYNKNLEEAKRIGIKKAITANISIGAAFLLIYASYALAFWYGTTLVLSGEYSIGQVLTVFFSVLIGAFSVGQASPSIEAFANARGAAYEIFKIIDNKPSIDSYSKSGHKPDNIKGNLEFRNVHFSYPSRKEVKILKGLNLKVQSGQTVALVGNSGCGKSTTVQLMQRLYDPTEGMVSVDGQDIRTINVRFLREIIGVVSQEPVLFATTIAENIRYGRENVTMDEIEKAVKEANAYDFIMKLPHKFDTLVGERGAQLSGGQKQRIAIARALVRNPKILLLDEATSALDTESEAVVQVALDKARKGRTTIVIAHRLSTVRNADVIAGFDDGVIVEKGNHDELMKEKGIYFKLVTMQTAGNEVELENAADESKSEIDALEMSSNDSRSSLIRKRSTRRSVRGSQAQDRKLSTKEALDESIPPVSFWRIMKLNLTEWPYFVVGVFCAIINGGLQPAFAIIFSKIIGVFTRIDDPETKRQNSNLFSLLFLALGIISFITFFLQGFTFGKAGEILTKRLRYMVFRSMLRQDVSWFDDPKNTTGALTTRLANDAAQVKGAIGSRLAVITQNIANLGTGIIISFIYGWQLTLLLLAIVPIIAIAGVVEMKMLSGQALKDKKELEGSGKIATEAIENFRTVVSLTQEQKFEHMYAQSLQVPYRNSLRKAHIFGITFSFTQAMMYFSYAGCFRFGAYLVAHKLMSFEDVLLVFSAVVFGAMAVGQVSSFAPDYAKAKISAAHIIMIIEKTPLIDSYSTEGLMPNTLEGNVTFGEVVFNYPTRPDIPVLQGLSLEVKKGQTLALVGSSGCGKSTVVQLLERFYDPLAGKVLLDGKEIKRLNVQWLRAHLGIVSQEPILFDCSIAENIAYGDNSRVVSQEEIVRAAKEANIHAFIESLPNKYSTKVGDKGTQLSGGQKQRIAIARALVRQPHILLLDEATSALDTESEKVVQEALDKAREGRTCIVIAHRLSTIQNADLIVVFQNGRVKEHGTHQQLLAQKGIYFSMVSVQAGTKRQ

Row | SMILES | Activity [1] | Activity [2] | Activity ([3]; time 73 hrs) [%] | Activity ([4]; time 73 hrs) [%] | Activity [8] | Activity [9] | IC50 at 72 h [10] [µM] | IC50 at 72 h [11] [µM] | Activity [12] | Activity [13] | Activity ([3]; time 73.0 hrs) | Activity ([4]; time 73.0 hrs) | also measured
1 | COc1ccc(CCN(C)CCCC(C#N)(c2ccc(OC)c(OC)c2)C(C)C)cc1OC (stereo not drawn) | Active | Active | 70 | 51 | – | – | – | – | – | – | – | – | Activity [5]: 56%; inhibition (INH) [6]: Not Active; Activity [7]: inactive
2 | COc1cc2c(cc1OC)CN(CC(=O)Nc1ccc(-c3nc4ccccn4c3CN3CCc4cc(OC)c(OC)cc4C3)cc1)CC2 | inactive | inactive | 61 | 39 | Non-Toxic | Non-Toxic | > 100 | > 100 | inactive | Active | – | – | –
3 | COc1cc2c(cc1OC)CN(CC(=O)Nc1ccc(-c3nc4ccccn4c3CN3CCN(c4ccccc4)CC3)cc1)CC2 | inactive | inactive | 59 | 33 | Non-Toxic | Non-Toxic | > 100 | > 100 | inactive | Active | – | – | –
4 | COc1ccc(/C=C/C(=O)Nc2ccc(-c3nc4ccccn4c3CN3CCN(c4ccccc4)CC3)cc2)cc1 | – | – | – | – | – | – | > 100 | > 100 | inactive | Active | – | – | Activity [14]: <30%; IC50 at 72 h [15]: 21 µM; IC50 at 72 h [16]: 12.4 µM; Activity [17]: inactive; Activity [18]: Active
5 | COc1cc2c(cc1OC)CN(CC(=O)Nc1ccc(-c3nc4ccccn4c3COCc3ccc(Cl)cc3)cc1)CC2 | Active | Active | – | – | Non-Toxic | Non-Toxic | – | – | – | – | Active | Active | –
6 | CC(=O)N1CCN(c2ccc(OCC3COC(Cn4ccnc4)(c4ccc(Cl)cc4Cl)O3)cc2)CC1 (stereo not drawn) | – | – | – | – | – | – | – | – | – | – | – | – | Activity [17]: inactive; Activity [18]: Active
7 | COc1cc2c(cc1OC)CN(CC(=O)Nc1ccc(-c3cn4ccccc4n3)cc1)CC2 | inactive | inactive | – | – | Non-Toxic | Non-Toxic | – | – | – | – | Active | Active | –
8 | CC[C@@]1(O)C(=O)OCc2c1cc1n(c2=O)Cc2cc3c(CN(C)C)c(O)ccc3nc2-1 [TOPOTECAN] | – | – | – | – | – | – | – | – | – | – | – | – | inhibition (INH) [6]: Not Active; inhibition (INH) [19]: Not Active
9 | COc1cc2c(cc1OC)CN(CC(=O)Nc1ccc(-c3nc4ccccn4c3CN3CCCC3)cc1)CC2 | inactive | inactive | – | – | Non-Toxic | Non-Toxic | – | – | – | – | Active | Active | –

From ChEMBL document CHEMBL5380807, “Imidazo[1,2-a]Pyridine Derivatives as Novel Dual-Target Inhibitors of ABCB1 and ABCG2 for Reversing Multidrug Resistance” (J Med Chem, 2023)
